#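 Following 48 hours of exposure in 96-well plates, responses at five concentrations were used to interpolate endpoints linearly. At the GI50, growth is halved. The concentration for full growth arrest is given as TGI.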
# Assays:
# Experiment in all cases: DTP human tumour cell line panel, 48 h
# DU-145 prostate = tested on: DU-145 prostate
# T-47D breast = tested on: T-47D breast
# HS 578T breast = tested on: HS 578T breast
# UACC-257 melanoma = tested on: UACC-257 melanoma
# PC-3 prostate = tested on: PC-3 prostate
# NCI-H226 lung = tested on: NCI-H226 lung
# HCC-2998 colon = tested on: HCC-2998 colon
# SNB-75 CNS = tested on: SNB-75 CNS
# IGROV1 ovarian = tested on: IGROV1 ovarian
# SN12C renal = tested on: SN12C renal
# OVCAR-5 ovarian = tested on: OVCAR-5 ovarian
# M14 melanoma = tested on: M14 melanoma
# HCT-116 colon = tested on: HCT-116 colon
# LOX IMVI melanoma = tested on: LOX IMVI melanoma
# CCRF-CEM leukemia = tested on: CCRF-CEM leukemia
# OVCAR-3 ovarian = tested on: OVCAR-3 ovarian
# SK-OV-3 ovarian = tested on: SK-OV-3 ovarian
# HL-60(TB) leukemia = tested on: HL-60(TB) leukemia
# SK-MEL-2 melanoma = tested on: SK-MEL-2 melanoma
# EKVX NSCLC = tested on: EKVX NSCLC
# MDA-MB-435 = tested on: MDA-MB-435
# NCI-H23 lung = tested on: NCI-H23 lung
# RPMI-8226 leukemia = tested on: RPMI-8226 leukemia
# HCT-15 colon = tested on: HCT-15 colon
# A549 NSCLC = tested on: A549 NSCLC
# SF-295 CNS = tested on: SF-295 CNS
# HOP-92 NSCLC = tested on: HOP-92 NSCLC
# UACC-62 melanoma = tested on: UACC-62 melanoma
# OVCAR-4 ovarian = tested on: OVCAR-4 ovarian
# SNB-19 CNS = tested on: SNB-19 CNS
# U251 CNS = tested on: U251 CNS
# NCI-H522 lung = tested on: NCI-H522 lung
# K-562 leukemia = tested on: K-562 leukemia
# MCF7 breast = tested on: MCF7 breast
# OVCAR-8 ovarian = tested on: OVCAR-8 ovarian
# NCI/ADR-RES ovarian = tested on: NCI/ADR-RES ovarian
# SF-539 CNS = tested on: SF-539 CNS
# NCI-H460 lung = tested on: NCI-H460 lung
# RXF 393 renal = tested on: RXF 393 renal
# COLO 205 colon = tested on: COLO 205 colon
# BT-549 breast = tested on: BT-549 breast
# SF-268 CNS = tested on: SF-268 CNS
# SW-620 colon = tested on: SW-620 colon
# MDA-MB-468 breast = tested on: MDA-MB-468 breast
# KM12 colon = tested on: KM12 colon
# ACHN renal = tested on: ACHN renal
# CAKI-1 renal = tested on: CAKI-1 renal
# A498 renal = tested on: A498 renal
# HT29 colon = tested on: HT29 colon
# 786-0 renal = tested on: 786-0 renal
# MOLT-4 leukemia = tested on: MOLT-4 leukemia
# SK-MEL-5 melanoma = tested on: SK-MEL-5 melanoma
# HOP-62 NSCLC = tested on: HOP-62 NSCLC
# MALME-3M melanoma = tested on: MALME-3M melanoma
# TK-10 renal = tested on: TK-10 renal
# SK-MEL-28 melanoma = tested on: SK-MEL-28 melanoma
compound,measurement,setting,value
Cc1cc(C)cc(Oc2cccc(-c3c(C)nnn3C3CCN(CCN(C)C)CC3)n2)c1,GI50,DU-145 prostate,12.3 µM
same,TGI,DU-145 prostate,34 µM
same,GI50,T-47D breast,2 µM
same,TGI,T-47D breast,24.3 µM
same,GI50,HS 578T breast,1.77 µM
same,TGI,HS 578T breast,9.43 µM
same,GI50,UACC-257 melanoma,1.48 µM
same,TGI,UACC-257 melanoma,15.8 µM
same,GI50,PC-3 prostate,2.07 µM
same,TGI,PC-3 prostate,17.2 µM
same,GI50,NCI-H226 lung,2.44 µM
same,TGI,NCI-H226 lung,17.2 µM
same,GI50,HCC-2998 colon,4.15 µM
same,TGI,HCC-2998 colon,17.8 µM
same,GI50,SNB-75 CNS,0.59 µM
same,TGI,SNB-75 CNS,8.53 µM
same,GI50,IGROV1 ovarian,5.15 µM
same,TGI,IGROV1 ovarian,18.7 µM
same,GI50,SN12C renal,4.27 µM
same,TGI,SN12C renal,18.6 µM
same,GI50,OVCAR-5 ovarian,3.61 µM
same,TGI,OVCAR-5 ovarian,22.1 µM
same,GI50,M14 melanoma,1.08 µM
same,TGI,M14 melanoma,11.5 µM
same,GI50,HCT-116 colon,1.41 µM
same,TGI,HCT-116 colon,10.1 µM
same,GI50,LOX IMVI melanoma,1.28 µM
same,TGI,LOX IMVI melanoma,7.21 µM
same,GI50,CCRF-CEM leukemia,0.951 µM
same,TGI,CCRF-CEM leukemia,5.13 µM
same,GI50,OVCAR-3 ovarian,1.66 µM
same,TGI,OVCAR-3 ovarian,6.66 µM
same,GI50,SK-OV-3 ovarian,0.893 µM
same,TGI,SK-OV-3 ovarian,3.52 µM
same,GI50,HL-60(TB) leukemia,0.134 µM
same,TGI,HL-60(TB) leukemia,1.18 µM
same,GI50,SK-MEL-2 melanoma,2.4 µM
same,TGI,SK-MEL-2 melanoma,12.5 µM
same,GI50,EKVX NSCLC,4.8 µM
same,TGI,EKVX NSCLC,21.1 µM
same,GI50,MDA-MB-435,1.6 µM
same,TGI,MDA-MB-435,14.3 µM
same,GI50,NCI-H23 lung,3.43 µM
same,TGI,NCI-H23 lung,16.1 µM
same,GI50,RPMI-8226 leukemia,0.378 µM
same,TGI,RPMI-8226 leukemia,2.78 µM
same,GI50,HCT-15 colon,1.41 µM
same,TGI,HCT-15 colon,11.2 µM
same,GI50,A549 NSCLC,1.46 µM
same,TGI,A549 NSCLC,12.9 µM
same,GI50,SF-295 CNS,4.72 µM
same,TGI,SF-295 CNS,19.4 µM
same,GI50,HOP-92 NSCLC,0.455 µM
same,TGI,HOP-92 NSCLC,15.4 µM
same,GI50,UACC-62 melanoma,0.554 µM
same,TGI,UACC-62 melanoma,5.24 µM
same,GI50,OVCAR-4 ovarian,3.1 µM
same,TGI,OVCAR-4 ovarian,21 µM
same,GI50,SNB-19 CNS,5.51 µM
same,TGI,SNB-19 CNS,20.8 µM
same,GI50,U251 CNS,3.16 µM
same,TGI,U251 CNS,15.3 µM
same,GI50,NCI-H522 lung,1.23 µM
same,TGI,NCI-H522 lung,4.41 µM
same,GI50,K-562 leukemia,0.671 µM
same,TGI,K-562 leukemia,6.82 µM
same,GI50,MCF7 breast,0.715 µM
same,TGI,MCF7 breast,12.3 µM
same,GI50,OVCAR-8 ovarian,1.88 µM
same,TGI,OVCAR-8 ovarian,13.7 µM
same,GI50,NCI/ADR-RES ovarian,2.63 µM
same,TGI,NCI/ADR-RES ovarian,14.3 µM
same,GI50,SF-539 CNS,1.71 µM
same,TGI,SF-539 CNS,8.22 µM
same,GI50,NCI-H460 lung,2.45 µM
same,TGI,NCI-H460 lung,13.1 µM
same,GI50,RXF 393 renal,3.52 µM
same,TGI,RXF 393 renal,12.6 µM
same,GI50,COLO 205 colon,0.632 µM
same,TGI,COLO 205 colon,10.8 µM
same,GI50,BT-549 breast,1.67 µM
same,TGI,BT-549 breast,3.65 µM
same,GI50,SF-268 CNS,4.56 µM
same,TGI,SF-268 CNS,20.1 µM
same,GI50,SW-620 colon,2.73 µM
same,TGI,SW-620 colon,16.2 µM
same,GI50,MDA-MB-468 breast,1.07 µM
same,TGI,MDA-MB-468 breast,3.73 µM
same,GI50,KM12 colon,2.72 µM
same,TGI,KM12 colon,16.6 µM
same,GI50,ACHN renal,2.01 µM
same,TGI,ACHN renal,15.7 µM
same,GI50,CAKI-1 renal,0.745 µM
same,TGI,CAKI-1 renal,15.6 µM
same,GI50,A498 renal,1.45 µM
same,TGI,A498 renal,7.52 µM
same,GI50,HT29 colon,0.742 µM
same,TGI,HT29 colon,5.54 µM
same,GI50,786-0 renal,0.939 µM
same,TGI,786-0 renal,3.89 µM
same,GI50,MOLT-4 leukemia,1.85 µM
same,TGI,MOLT-4 leukemia,6.74 µM
same,GI50,SK-MEL-5 melanoma,1.4 µM
same,TGI,SK-MEL-5 melanoma,4.95 µM
same,GI50,HOP-62 NSCLC,1.13 µM
same,TGI,HOP-62 NSCLC,12.9 µM
same,GI50,MALME-3M melanoma,2.08 µM
same,TGI,MALME-3M melanoma,13.7 µM
same,GI50,TK-10 renal,0.707 µM
same,TGI,TK-10 renal,13.1 µM
same,GI50,SK-MEL-28 melanoma,3.9 µM
same,TGI,SK-MEL-28 melanoma,18.7 µM
